Data from patent US20240336608A1, “IL4I1 INHIBITORS AND METHODS OF USE” (Merck Sharp & Dohme LLC, priority 2023, published 2024).

Molecular target: T1, recombinant IL4I1 (Homo sapiens, UniProt Q96RQ9)
T1 construct: purchased R&D Systems 5684-AO-020
T1 sequence (Q96RQ9 22-567): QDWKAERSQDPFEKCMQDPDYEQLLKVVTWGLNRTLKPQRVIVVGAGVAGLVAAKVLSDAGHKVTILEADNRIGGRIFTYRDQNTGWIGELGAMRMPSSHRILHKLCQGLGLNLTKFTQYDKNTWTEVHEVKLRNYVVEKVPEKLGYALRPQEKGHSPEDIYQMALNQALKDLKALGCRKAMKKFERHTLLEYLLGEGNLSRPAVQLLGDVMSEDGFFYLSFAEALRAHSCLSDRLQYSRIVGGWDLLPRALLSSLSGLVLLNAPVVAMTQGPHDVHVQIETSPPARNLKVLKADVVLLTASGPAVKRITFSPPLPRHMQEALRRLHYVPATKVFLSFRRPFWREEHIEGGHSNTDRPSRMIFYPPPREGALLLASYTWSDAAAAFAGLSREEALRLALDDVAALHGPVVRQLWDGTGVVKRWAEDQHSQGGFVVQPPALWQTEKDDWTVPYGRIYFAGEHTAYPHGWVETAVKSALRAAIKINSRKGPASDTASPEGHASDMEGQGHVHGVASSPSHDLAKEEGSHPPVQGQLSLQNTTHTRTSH
Assay: IL4I1 Enzymatic Assay (Amplex Red/HRP coupled detection of H2O2, fluorescence)
Assay type: biochemical
Settings: 1 nM recombinant IL4I1; four-hour pre-incubation with compound; 1 mM each Phe, Tyr, Trp; ten-point titration
Outline: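 H2O2 output was coupled to resorufin fluorescence (ex 544/em 590) via 0.05 mM Amplex Red and 1 U/mL HRP. Substrate: Phe, Tyr, Trp at 1 mM each; enzyme 1 nM, 4 h compound pre-incubation, 120 min reaction, pH 7.0 Hepes. EC50 by nonlinear four-parameter regression, 1:3 ten-point titration.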

EC50 [nM]	SMILES
43	CC(C)c1cc(C(=O)NCc2nnc(-c3ccccc3)s2)no1 [Example 26, 5-isopropyl-N-[(5-phenyl-1,3,4-thiadiazol-2-yl)methyl]isoxazole-3-carboxamide]
890	Cc1cc(C(=O)NCc2nnc(-c3ccccc3)s2)oc1C [Example 38, 4,5-dimethyl-N-[(5-phenyl-1,3,4-thiadiazol-2-yl)methyl]furan-2-carboxamide]
916	CC(C)(O)c1cc(C(=O)NCc2cc(-c3ccccc3)no2)on1 [Example 247, 3-(2-hydroxypropan-2-yl)-N-((3-phenylisoxazol-5-yl)methyl)isoxazole-5-carboxamide]
7	C[C@H](C(F)F)n1cc(C(=O)NCc2nnc(-c3ccccc3)s2)nn1 [Example 168, (R)-1-(1,1-difluoropropan-2-yl)-N-((5-phenyl-1,3,4-thiadiazol-2-yl)methyl)-1H-1,2,3-triazole-4-carboxamide]
17	O=C(NCc1nnc(-c2ccccc2)s1)c1cn(Cc2cn[nH]c2)nn1 [Example 164, 1-((1H-pyrazol-4-yl)methyl)-N-((5-phenyl-1,3,4-thiadiazol-2-yl)methyl)-1H-1,2,3-triazole-4-carboxamide]
241	O=C(NCc1nnc(-c2ccccc2)s1)c1cn(-c2cncnc2)nn1 [Example 316, N-((5-phenyl-1,3,4-thiadiazol-2-yl)methyl)-1-(pyrimidin-5-yl)-1H-1,2,3-triazole-4-carboxamide]
127	O=C(NCc1nnc(-c2ccccc2)s1)c1noc2ccccc12 [Example 215, N-[(5-phenyl-1,3,4-thiadiazol-2-yl)methyl]-1,2-benzoxazole-3-carboxamide]
195	Cc1ccc(-n2cc(C(=O)NCc3cc(-c4ccccc4Cl)no3)nn2)c(C)n1 [Example 220, N-{[3-(2-chlorophenyl)-1,2-oxazol-5-yl]methyl}-1-(2,6-dimethylpyridin-3-yl)-1H-1,2,3-triazole-4-carboxamide]
69	Cc1ccc(-n2cc(C(=O)NCc3nnc(-c4ccc(F)cc4)s3)nn2)c(C)n1 [Example 227, 1-(2,6-dimethylpyridin-3-yl)-N-{[5-(4-fluorophenyl)-1,3,4-thiadiazol-2-yl]methyl}-1H-1,2,3-triazole-4-carboxamide]
128	CCn1ccc(C(=O)NCc2nnc(-c3ccccc3)s2)n1 [Example 52, 1-ethyl-N-[(5-phenyl-1,3,4-thiadiazol-2-yl)methyl]pyrazole-3-carboxamide]
93	CC(CC(F)(F)F)n1cc(C(=O)NCc2nnc(-c3ccccc3)s2)nn1 (single isomer, unassigned) [Example 64, N-((5-phenyl-1,3,4-thiadiazol-2-yl)methyl)-1-(4,4,4-trifluorobutan-2-yl)-1H-1,2,3-triazole-4-carboxamide]
18	CC(CC(F)(F)F)n1cc(C(=O)NCc2nnc(-c3ccccc3)s2)nn1 (single isomer, unassigned) [Example 63, N-((5-phenyl-1,3,4-thiadiazol-2-yl)methyl)-1-(4,4,4-trifluorobutan-2-yl)-1H-1,2,3-triazole-4-carboxamide]
2	O=C(NCc1nnc(-c2ccccc2)s1)c1cn(CCF)nn1 [Example 80, 1-(2-fluoroethyl)-N-((5-phenyl-1,3,4-thiadiazol-2-yl)methyl)-1H-1,2,3-triazole-4-carboxamide]
12	O=C(NCc1nnc(-c2ccccc2)s1)c1cn(CC2CCC2)nn1 [Example 77, 1-(cyclobutylmethyl)-N-((5-phenyl-1,3,4-thiadiazol-2-yl)methyl)-1H-1,2,3-triazole-4-carboxamide]
15	Cc1ccc(-n2cc(C(=O)NCc3nnc(-c4ccccc4)s3)nn2)c(C)n1 [Example 1, 1-(2,6-dimethylpyridin-3-yl)-N-((5-phenyl-1,3,4-thiadiazol-2-yl)methyl)-1H-1,2,3-triazole-4-carboxamide]
86	Cc1ncccc1-n1cc(C(=O)NCc2nnc(-c3ccccc3)s2)nn1 [Example 315, 1-(2-methylpyridin-3-yl)-N-((5-phenyl-1,3,4-thiadiazol-2-yl)methyl)-1H-1,2,3-triazole-4-carboxamide]
155	O=C(NCc1nnc(-c2ccccc2)s1)c1cn(C2CS(=O)(=O)CC2O)nn1 (stereo not shown) [Example 188, 1-(4-hydroxy-1,1-dioxidotetrahydrothiophen-3-yl)-N-((5-phenyl-1,3,4-thiadiazol-2-yl)methyl)-1H-1,2,3-triazole-4-carboxamide]

EC50 [nM]	SMILES
326	Cc1ccc(-n2cc(C(=O)NCc3ccc(-n4nccn4)cn3)nn2)c(C)n1 [Example 216, 1-(2,6-dimethylpyridin-3-yl)-N-{[5-(2H-1,2,3-triazol-2-yl)pyridin-2-yl]methyl}-1H-1,2,3-triazole-4-carboxamide]
25	O=C(NCc1nnc(-c2ccccc2)s1)c1cn(CC2(CO)COC2)nn1 [Example 185, 1-((3-(hydroxymethyl)oxetan-3-yl)methyl)-N-((5-phenyl-1,3,4-thiadiazol-2-yl)methyl)-1H-1,2,3-triazole-4-carboxamide]
49	O=C(NCc1nnc(-c2ccccc2)s1)c1cn(C23CC(C2)C3)nn1 [Example 172, 1-(bicyclo[1.1.1]pentan-1-yl)-N-((5-phenyl-1,3,4-thiadiazol-2-yl)methyl)-1H-1,2,3-triazole-4-carboxamide]
8	Cc1nc(OC(F)F)ccc1-n1cc(C(=O)NCc2nnc(-c3ccccc3)s2)nn1 [Example 301, 1-(6-(difluoromethoxy)-2-methylpyridin-3-yl)-N-((5-phenyl-1,3,4-thiadiazol-2-yl)methyl)-1H-1,2,3-triazole-4-carboxamide]
695	Cc1ccc(-n2cc(C(=O)NCc3nnc(-c4ccc(F)c(F)c4)s3)nn2)c(C)n1 [Example 106, N-((5-(3,4-difluorophenyl)-1,3,4-thiadiazol-2-yl)methyl)-1-(2,6-dimethylpyridin-3-yl)-1H-1,2,3-triazole-4-carboxamide]
23	CC1(n2cc(C(=O)NCc3nnc(-c4ccccc4)s3)nn2)CCC1 [Example 124, 1-(1-methylcyclobutyl)-N-((5-phenyl-1,3,4-thiadiazol-2-yl)methyl)-1H-1,2,3-triazole-4-carboxamide]
29	O=C(NCc1nnc(-c2ccccc2)s1)c1cn(C2CCOC2)nn1 (stereo not shown) [Example 305, N-((5-phenyl-1,3,4-thiadiazol-2-yl)methyl)-1-(tetrahydrofuran-3-yl)-1H-1,2,3-triazole-4-carboxamide]
42	CC(C)(C)Cn1cc(C(=O)NCc2nnc(-c3ccccc3)s2)nn1 [Example 86, 1-neopentyl-N-((5-phenyl-1,3,4-thiadiazol-2-yl)methyl)-1H-1,2,3-triazole-4-carboxamide]
34	C[C@H](CCF)n1cc(C(=O)NCc2nnc(-c3ccccc3)s2)nn1 [Example 170, (R)-1-(4-fluorobutan-2-yl)-N-((5-phenyl-1,3,4-thiadiazol-2-yl)methyl)-1H-1,2,3-triazole-4-carboxamide]
11	O=C(NCc1nnc(-c2ccccc2)s1)c1cn(CC2COC2)nn1 [Example 157, 1-(oxetan-3-ylmethyl)-N-((5-phenyl-1,3,4-thiadiazol-2-yl)methyl)-1H-1,2,3-triazole-4-carboxamide]
10	O=C(NCc1nnc(-c2ccccc2)s1)c1cn(CCO)nn1 [Example 233, 1-(2-hydroxyethyl)-N-((5-phenyl-1,3,4-thiadiazol-2-yl)methyl)-1H-1,2,3-triazole-4-carboxamide]
266	Cc1oc(C)c(C(=O)NCc2nnc(-c3ccccc3)s2)c1C [Example 40, 2,4,5-trimethyl-N-[(5-phenyl-1,3,4-thiadiazol-2-yl)methyl]furan-3-carboxamide]
12	Cc1csc(C(=O)NCc2nnc(-c3ccccc3)s2)c1Cl [Example 37, 3-chloro-4-methyl-N-[(5-phenyl-1,3,4-thiadiazol-2-yl)methyl]thiophene-2-carboxamide]
9	Cc1ccc(-n2cc(C(=O)NCc3cc(-c4ccccc4)no3)nn2)c(C)n1 [Example 234, 1-(2,6-dimethylpyridin-3-yl)-N-((3-phenylisoxazol-5-yl)methyl)-1H-1,2,3-triazole-4-carboxamide]
77	O=C(NCc1nnc(-c2ccccc2)s1)c1cn([C@H]2CCOC[C@@H]2O)nn1 [Example 184, 1-((3R,4S)-3-hydroxytetrahydro-2H-pyran-4-yl)-N-((5-phenyl-1,3,4-thiadiazol-2-yl)methyl)-1H-1,2,3-triazole-4-carboxamide]
361	O=C(NCc1nnc(-c2ccccc2)s1)c1cn(CC2CCCCO2)nn1 (stereo not shown) [Example 83, N-((5-phenyl-1,3,4-thiadiazol-2-yl)methyl)-1-((tetrahydro-2H-pyran-2-yl)methyl)-1H-1,2,3-triazole-4-carboxamide]
92	O=C(NCc1nnc(-c2ccccc2)s1)c1cn(CC2(CO)CC2)nn1 [Example 343, 1-((1-(hydroxymethyl)cyclopropyl)methyl)-N-((5-phenyl-1,3,4-thiadiazol-2-yl)methyl)-1H-1,2,3-triazole-4-carboxamide]
